Patent publication US20230391760A1, “HETEROCYCLIC GLP-1 AGONISTS” (Gasherbrum Bio, Inc., priority 2020, published 2023)

Biological target: GLP-1 Receptor (Homo sapiens, UniProt P43220)
Experiment: GLP-1R agonist cAMP stimulation assay (HEK293/GLP1R/CRE-LUC cells, cAMP dynamic 2 Kit)
Format: cell-based
Conditions: HEK293/CRE-Luc cell line stably expressing the GLP-1 Receptor, 30 min at 37° C.
Method in brief: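 HEK293 cells stably expressing human GLP-1R with CRE-luciferase, 1000 cells/well in DPBS with 0.5 mM IBMX and 0.1% BSA, treated with compound in 1/2-log serial dilution for 30 min at 37 °C. cAMP then detected by HTRF (cAMP-d2 plus anti-cAMP cryptate), 1 h at room temperature in the dark.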

GLP-1 Receptor, sequence (P43220 24-463, species assumed): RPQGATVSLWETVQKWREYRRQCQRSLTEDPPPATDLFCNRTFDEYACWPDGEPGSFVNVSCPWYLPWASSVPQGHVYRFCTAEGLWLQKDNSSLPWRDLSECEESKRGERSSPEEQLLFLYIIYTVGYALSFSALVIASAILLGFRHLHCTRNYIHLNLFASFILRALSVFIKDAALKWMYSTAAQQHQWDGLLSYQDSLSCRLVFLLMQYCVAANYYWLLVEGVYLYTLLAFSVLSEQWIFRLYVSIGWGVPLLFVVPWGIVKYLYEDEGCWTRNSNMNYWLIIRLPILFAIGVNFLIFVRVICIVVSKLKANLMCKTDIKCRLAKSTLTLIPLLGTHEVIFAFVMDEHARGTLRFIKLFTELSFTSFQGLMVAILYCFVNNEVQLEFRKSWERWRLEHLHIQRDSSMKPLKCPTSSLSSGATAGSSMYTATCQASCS

EC50 [nM] | SMILES
0.016 | Fc1cc(Cl)ccc1COc1cccc(C2=CCN(Cc3nc4cc(-c5nnc(C(F)(F)F)[nH]5)cnc4n3C[C@@H]3CCO3)CC2)n1 [Compound 323a, 6-[(4-chloro-2-fluorophenyl)methoxy]-1′-[(3-{[(2S)-oxetan-2-yl]methyl}-6-[5-(trifluoromethyl)-4H-1,2,4-triazol-3-yl]-3H-imidazo[4,5-b]pyridin-2-yl)methyl]-1′,2′,3′,6′-tetrahydro-2,4′-bipyridine]
0.3 | Fc1cc(Cl)ccc1C1COc2cccc(C3CCN(Cc4nc5cc(-c6nnc(C(F)(F)F)[nH]6)nnc5n4C[C@@H]4CCO4)CC3)c2O1 (stereo partly drawn) [Compound 465a, 4-[3-(4-chloro-2-fluorophenyl)-2,3-dihydro-1,4-benzodioxin-5-yl]-1-[(7-{[(2S)-oxetan-2-yl]methyl}-3-[5-(trifluoromethyl)-4H-1,2,4-triazol-3-yl]-7H-imidazo[4,5-c]pyridazin-6-yl)methyl]piperidine]
0.51 | Fc1cc(Cl)ccc1COc1cc(N2CCN(Cc3nc4cc(-c5nnc(C(F)(F)F)[nH]5)nnc4n3C[C@@H]3CCO3)CC2)ccc1F [Compound 483a, 1-{3-[(4-chloro-2-fluorophenyl)methoxy]-4-fluorophenyl}-4-[(7-{[(2S)-oxetan-2-yl]methyl}-3-[5-(trifluoromethyl)-4H-1,2,4-triazol-3-yl]-7H-imidazo[4,5-c]pyridazin-6-yl)methyl]piperazine]
0.043 | N#Cc1ccc(COc2nc(C3CCN(Cc4nc5cc(-c6nnc(C(F)(F)F)[nH]6)nnc5n4C[C@@H]4CCO4)CC3)ccc2F)c(F)c1 [Compound 517a, 3-fluoro-4-{[(3-fluoro-6-{1-[(7-{[(2S)-oxetan-2-yl]methyl}-3-[5-(trifluoromethyl)-4H-1,2,4-triazol-3-yl]-7H-imidazo[4,5-c]pyridazin-6-yl)methyl]piperidin-4-yl}pyridin-2-yl)oxy]methyl}benzonitrile]
0.13 | FC(F)(F)c1nnc(-c2cc3nc(CN4CCC(c5cccc6c5OC[C@@H](c5ccc(Cl)cc5)O6)CC4)n(C[C@@H]4CCO4)c3cn2)[nH]1 [Compound 423a, 4-[(2R)-2-(4-chlorophenyl)-2,3-dihydro-1,4-benzodioxin-5-yl]-1-[(3-{[(2S)-oxetan-2-yl]methyl}-6-[5-(trifluoromethyl)-4H-1,2,4-triazol-3-yl]-3H-imidazo[4,5-c]pyridin-2-yl)methyl]piperidine]
8.9 | CC1(c2ccc(Cl)cc2F)Oc2cccc(C3CCN(Cc4nc5cc(-c6nnc(C(F)(F)F)[nH]6)ccc5n4C[C@@H]4CCO4)CC3)c2O1 (single isomer, unassigned) [Compound 229b]
0.0084 | N#Cc1ccc(COc2cccc(N3CCN(Cc4nc5cc(-c6nnc(C(F)(F)F)[nH]6)cnc5n4C[C@@H]4CCO4)CC3)n2)c(F)c1 [Compound 495a, 3-fluoro-4-{[(6-{4-[(3-{[(2S)-oxetan-2-yl]methyl}-6-[5-(trifluoromethyl)-4H-1,2,4-triazol-3-yl]-3H-imidazo[4,5-b]pyridin-2-yl)methyl]piperazin-1-yl}pyridin-2-yl)oxy]methyl}benzonitrile]
0.02 | CC1(c2ccc(C#N)cc2F)Oc2cccc(C3CCN(Cc4nc5cc(-c6nnc(C(F)(F)F)[nH]6)cnc5n4C[C@@H]4CCO4)CC3)c2O1 (stereo partly drawn) [Compound 403a, 3-fluoro-4-(2-methyl-4-{1-[(3-{[(2S)-oxetan-2-yl]methyl}-6-[5-(trifluoromethyl)-4H-1,2,4-triazol-3-yl]-3H-imidazo[4,5-b]pyridin-2-yl)methyl]piperidin-4-yl}-2H-1,3-benzodioxol-2-yl)benzonitrile]
4 | O=C1NCCN1c1ccc2c(c1)nc(CN1CCC(c3cccc(OCc4ccc(Cl)cc4F)n3)CC1)n2C[C@@H]1CCO1 [Compound 123a, 1-{2-[(4-{6-[(4-chloro-2-fluorophenyl)methoxy]pyridin-2-yl}piperidin-1-yl)methyl]-1-{[(2S)-oxetan-2-yl]methyl}-1H-1,3-benzodiazol-5-yl}imidazolidin-2-one]
1.09 | O=C(O)c1ccc2c(c1)nc(CN1CC=C(c3cccc(OCc4ccc(Cl)cc4F)n3)CC1)n2C[C@@H]1CCO1 [Compound 111a, (S)-2-((6-((4-chloro-2-fluorobenzyl)oxy)-3′,6′-dihydro-[2,4′-bipyridin]-1′(2′H)-yl)methyl)-1-(oxetan-2-ylmethyl)-1H-benzo[d]imidazole-5-carboxylic acid]
0.018 | C[C@H]1CN(c2cccc(OCc3ccc(Cl)cc3F)n2)CCN1Cc1nc2cc(-c3nnc(C(F)(F)F)[nH]3)ncc2n1C[C@@H]1CCO1 [Compound 480a, (2S)-4-{6-[(4-chloro-2-fluorophenyl)methoxy]pyridin-2-yl}-2-methyl-1-[(3-{[(2S)-oxetan-2-yl]methyl}-6-[5-(trifluoromethyl)-4H-1,2,4-triazol-3-yl]-3H-imidazo[4,5-c]pyridin-2-yl)methyl]piperazine]
0.034 | Fc1cc(C(F)(F)F)ccc1COc1cccc(C2CCN(Cc3nc4cc(-c5nnc(C(F)(F)F)[nH]5)ncc4n3C[C@@H]3CCO3)CC2)n1 [Compound 497a, 2-{[2-fluoro-4-(trifluoromethyl)phenyl]methoxy}-6-{1-[(3-{[(2S)-oxetan-2-yl]methyl}-6-[5-(trifluoromethyl)-4H-1,2,4-triazol-3-yl]-3H-imidazo[4,5-c]pyridin-2-yl)methyl]piperidin-4-yl}pyridine]

The next lines start with the molecule.

SMILES | EC50 [nM]
CC(=O)Nc1ccc2c(c1)nc(CN1CCC(c3cccc4c3OC[C@@H](c3ccc(Cl)cc3F)O4)CC1)n2C[C@@H]1CCO1 [Compound 114a, N-(2-((4-((R)-2-(4-chloro-2-fluorophenyl)-2,3-dihydrobenzo[b][1,4]dioxin-5-yl)piperidin-1-yl)methyl)-1-(((S)-oxetan-2-yl)methyl)-1H-benzo[d]imidazol-5-yl)acetamide] | 58.9
O=C(O)Cc1ccc2c(c1)nc(CN1CCC(c3cccc(OCc4ccc(Cl)cc4F)n3)CC1)n2C[C@@H]1CCO1 [Compound 110a, (S)-2-(2-((4-(6-((4-chloro-2-fluorobenzyl)oxy)pyridin-2-yl)piperidin-1-yl)methyl)-1-(oxetan-2-ylmethyl)-1H-benzo[d]imidazol-5-yl)acetic acid] | 15.9
O=C(O)COc1ccc2c(c1)nc(CN1CCC(c3cccc(OCc4ccc(Cl)cc4F)n3)CC1)n2C[C@@H]1CCO1 [Compound 109a, (S)-2-((2-((4-(6-((4-chloro-2-fluorobenzyl)oxy)pyridin-2-yl)piperidin-1-yl)methyl)-1-(oxetan-2-ylmethyl)-1H-benzo[d]imidazol-5-yl)oxy)acetic acid] | 13.2
Cc1nnc(-c2cc3nc(CN4CCC(c5cccc6c5OC(c5ccc(Cl)cc5F)CO6)CC4)n(C[C@@H]4CCO4)c3cn2)[nH]1 (stereo partly drawn) [Compound 468a, 4-[3-(4-chloro-2-fluorophenyl)-2,3-dihydro-1,4-benzodioxin-5-yl]-1-{[6-(5-methyl-4H-1,2,4-triazol-3-yl)-3-{[(2S)-oxetan-2-yl]methyl}-3H-imidazo[4,5-c]pyridin-2-yl]methyl}piperidine] | 0.53
CSc1nnc(-c2ccc3c(c2)nc(CN2CCC(c4cccc5c4OC(C)(c4ccc(Cl)cc4F)O5)CC2)n3C[C@@H]2CCO2)[nH]1 (stereo partly drawn) [Compound 252a, 2-({4-[2-(4-chloro-2-fluorophenyl)-2-methyl-2H-1,3-benzodioxol-4-yl]piperidin-1-yl}methyl)-5-[5-(methylsulfanyl)-4H-1,2,4-triazol-3-yl]-1-{[(2S)-oxetan-2-yl]methyl}-1H-1,3-benzodiazole] | 0.066
CC1(c2ccc(Cl)cc2F)Oc2cccc(C3CCN(Cc4nc5cc(-c6cn(CCO)nn6)ccc5n4C[C@@H]4CCO4)CC3)c2O1 (stereo partly drawn) [Compound 228a, 2-{4-[2-({4-[2-(4-chloro-2-fluorophenyl)-2-methyl-2H-1,3-benzodioxol-4-yl]piperidin-1-yl}methyl)-1-{[(2S)-oxetan-2-yl]methyl}-1H-1,3-benzodiazol-5-yl]-1H-1,2,3-triazol-1-yl}ethan-1-ol] | 0.19
CC1(c2ccc(Cl)cc2)Oc2cccc(C3=CCN(Cc4nc5cc(-c6nnc(C(F)(F)F)[nH]6)ccc5n4CC4(C#N)CC4)CC3)c2O1 (centres unmarked) [Compound 413, 1-{[2-({4-[2-(4-chlorophenyl)-2-methyl-2H-1,3-benzodioxol-4-yl]-1,2,3,6-tetrahydropyridin-1-yl}methyl)-5-[5-(trifluoromethyl)-4H-1,2,4-triazol-3-yl]-1H-1,3-benzodiazol-1-yl]methyl}cyclopropane-1-carbonitrile] | 0.6
C[C@]1(c2ccc(Cl)cc2F)Oc2cccc(C3CCN(Cc4nc5cc(-c6nnc(C7CC7)[nH]6)ncc5n4C[C@@H]4CCO4)CC3)c2O1 [Compound 281a, 4-[(2S)-2-(4-chloro-2-fluorophenyl)-2-methyl-2H-1,3-benzodioxol-4-yl]-1-{[6-(5-cyclopropyl-4H-1,2,4-triazol-3-yl)-3-{[(2S)-oxetan-2-yl]methyl}-3H-imidazo[4,5-c]pyridin-2-yl]methyl}piperidine] | 0.023
O=C(Nc1ccc2c(c1)nc(CN1CCC(c3cccc(OCc4ccc(Cl)cc4F)n3)CC1)n2C[C@@H]1CCO1)C1CCCOC1 (single isomer, unassigned) [Compound 154c] | 1.5
CC(=O)Nc1ccc2c(c1)nc(CN1CC=C(c3cccc(OCc4ccc(Cl)cc4F)n3)CC1)n2C[C@@H]1CCO1 [Compound 135a, N-{2-[(4-{6-[(4-chloro-2-fluorophenyl)methoxy]pyridin-2-yl}-1,2,3,6-tetrahydropyridin-1-yl)methyl]-1-{[(2S)-oxetan-2-yl]methyl}-1H-1,3-benzodiazol-5-yl}acetamide] | 0.64
Cn1cc(-c2ccc3c(c2)nc(CN2CCC(c4cccc5c4OC(C)(c4ccc(Cl)cc4F)O5)CC2)n3C[C@@H]2CCO2)cn1 (stereo partly drawn) [Compound 233a, 2-((4-(2-(4-chloro-2-fluorophenyl)-2-methylbenzo[d][1,3]dioxol-4-yl)piperidin-1-yl)methyl)-5-(1-methyl-1H-pyrazol-4-yl)-1-(((S)-oxetan-2-yl)methyl)-1H-benzo[d]imidazole] | 4
